Activity calls are given as the source filed them. The calls are words filed in the database; no cut-off is given here.
What was measured:
CDK7/Cyclin H/MNAT1 = CDK7/Cyclin H/MNAT1 (Homo sapiens, UniProt P50613); assay: Inhibition of human His-tagged CDK7/cyclin H/MNAT1 expressed in baculovirus infected insect cells preincubated for 10 mins followed by substrate and ATP addition and measured after 60 mins by ADP-Glo kinase assay; parameters: species or system Insect cell
[1] = Metabolic stability in human liver microsomes assessed as half-life; type: ADME, Microsome
[2] = Metabolic stability in mouse liver microsomes assessed as half-life; type: ADME, Microsome
[3] = molecular target: T1, Dual specificity mitogen-activated protein kinase kinase 5 (Homo sapiens, UniProt Q13163); assay: Inhibition of MAP2K5 (unknown origin) by discoverX kinomescan assay
T1 sequence (Q13163 whole entry): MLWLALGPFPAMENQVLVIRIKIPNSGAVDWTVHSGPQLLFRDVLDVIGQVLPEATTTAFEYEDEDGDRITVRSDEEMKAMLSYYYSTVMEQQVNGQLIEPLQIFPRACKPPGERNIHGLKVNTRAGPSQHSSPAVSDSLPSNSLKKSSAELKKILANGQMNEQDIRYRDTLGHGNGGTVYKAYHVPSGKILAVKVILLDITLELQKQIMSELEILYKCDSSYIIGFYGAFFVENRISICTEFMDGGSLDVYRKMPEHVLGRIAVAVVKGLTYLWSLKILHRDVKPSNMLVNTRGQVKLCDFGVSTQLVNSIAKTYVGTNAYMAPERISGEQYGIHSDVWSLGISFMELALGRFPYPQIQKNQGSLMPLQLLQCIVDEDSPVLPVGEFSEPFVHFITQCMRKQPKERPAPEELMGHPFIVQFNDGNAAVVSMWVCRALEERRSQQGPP

[4] = molecular target: Cyclin-dependent kinase 13 (Homo sapiens) (UniProt Q14004); assay: Inhibition of CDK13 (unknown origin) at 1 uM by discoverX kinomescan assay
Cyclin-dependent kinase 13 (Homo sapiens), sequence (Q14004 whole entry, looked up): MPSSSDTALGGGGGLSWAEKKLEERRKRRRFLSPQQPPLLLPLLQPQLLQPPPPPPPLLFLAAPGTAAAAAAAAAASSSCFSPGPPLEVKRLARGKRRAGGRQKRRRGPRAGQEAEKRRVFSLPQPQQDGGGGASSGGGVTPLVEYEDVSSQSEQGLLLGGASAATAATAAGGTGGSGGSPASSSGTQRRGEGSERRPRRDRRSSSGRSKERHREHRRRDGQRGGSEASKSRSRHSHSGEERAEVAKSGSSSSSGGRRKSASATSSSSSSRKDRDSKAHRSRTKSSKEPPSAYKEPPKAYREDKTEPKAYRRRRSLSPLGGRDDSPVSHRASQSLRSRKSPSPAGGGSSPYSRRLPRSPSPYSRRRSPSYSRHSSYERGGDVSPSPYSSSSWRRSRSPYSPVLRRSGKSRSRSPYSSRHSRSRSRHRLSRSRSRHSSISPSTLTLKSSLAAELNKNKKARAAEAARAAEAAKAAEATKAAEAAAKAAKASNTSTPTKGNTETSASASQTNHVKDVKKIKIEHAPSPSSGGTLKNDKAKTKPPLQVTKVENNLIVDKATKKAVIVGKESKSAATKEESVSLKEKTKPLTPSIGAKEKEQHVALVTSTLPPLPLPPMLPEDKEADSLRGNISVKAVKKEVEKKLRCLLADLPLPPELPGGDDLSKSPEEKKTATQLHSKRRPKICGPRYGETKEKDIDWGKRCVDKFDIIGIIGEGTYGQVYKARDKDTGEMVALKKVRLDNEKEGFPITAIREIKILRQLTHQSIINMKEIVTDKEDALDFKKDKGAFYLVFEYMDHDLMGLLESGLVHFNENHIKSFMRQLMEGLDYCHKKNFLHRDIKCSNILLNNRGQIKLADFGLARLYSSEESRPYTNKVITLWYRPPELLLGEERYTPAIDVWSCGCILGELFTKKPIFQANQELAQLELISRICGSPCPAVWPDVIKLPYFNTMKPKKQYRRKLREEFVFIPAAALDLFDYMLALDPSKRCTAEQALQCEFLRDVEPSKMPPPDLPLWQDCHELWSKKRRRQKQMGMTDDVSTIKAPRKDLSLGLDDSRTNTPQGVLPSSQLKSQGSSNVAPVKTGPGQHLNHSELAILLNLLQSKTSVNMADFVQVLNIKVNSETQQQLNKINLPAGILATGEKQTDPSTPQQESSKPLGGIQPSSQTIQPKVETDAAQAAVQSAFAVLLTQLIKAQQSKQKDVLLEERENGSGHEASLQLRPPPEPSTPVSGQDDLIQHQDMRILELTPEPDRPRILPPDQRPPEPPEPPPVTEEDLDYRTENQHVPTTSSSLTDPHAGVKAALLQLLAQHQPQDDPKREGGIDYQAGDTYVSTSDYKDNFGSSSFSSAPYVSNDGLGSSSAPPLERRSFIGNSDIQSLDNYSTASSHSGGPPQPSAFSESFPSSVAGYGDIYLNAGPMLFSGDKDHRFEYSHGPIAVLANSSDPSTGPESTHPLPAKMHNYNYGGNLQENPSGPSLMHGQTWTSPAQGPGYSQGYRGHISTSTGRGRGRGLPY

[5] = molecular target: Cyclin-dependent kinase 16 (Homo sapiens) (UniProt Q00536); assay: Inhibition of CDK16 (unknown origin) at 1 uM by discoverX kinomescan assay
Cyclin-dependent kinase 16 (Homo sapiens), sequence (Q00536 whole entry): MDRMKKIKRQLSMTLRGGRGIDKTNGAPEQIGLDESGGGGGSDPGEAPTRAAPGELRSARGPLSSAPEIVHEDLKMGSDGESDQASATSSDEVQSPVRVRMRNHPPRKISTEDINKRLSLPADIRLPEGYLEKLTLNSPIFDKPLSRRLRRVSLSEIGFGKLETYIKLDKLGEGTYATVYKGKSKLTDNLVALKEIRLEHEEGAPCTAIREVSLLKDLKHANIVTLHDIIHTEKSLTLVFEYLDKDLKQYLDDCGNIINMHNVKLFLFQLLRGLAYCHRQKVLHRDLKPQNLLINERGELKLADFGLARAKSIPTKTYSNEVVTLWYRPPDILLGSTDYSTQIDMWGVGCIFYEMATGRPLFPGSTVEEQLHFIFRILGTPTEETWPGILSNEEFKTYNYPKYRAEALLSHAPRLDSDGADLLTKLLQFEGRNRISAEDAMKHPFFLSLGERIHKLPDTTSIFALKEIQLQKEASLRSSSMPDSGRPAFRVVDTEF

[6] = molecular target: Cyclin-dependent kinase 17 (Homo sapiens) (UniProt Q00537); assay: Inhibition of CDK17 (unknown origin) at 1 uM by discoverX kinomescan assay
Cyclin-dependent kinase 17 (Homo sapiens), sequence (Q00537 whole entry, looked up): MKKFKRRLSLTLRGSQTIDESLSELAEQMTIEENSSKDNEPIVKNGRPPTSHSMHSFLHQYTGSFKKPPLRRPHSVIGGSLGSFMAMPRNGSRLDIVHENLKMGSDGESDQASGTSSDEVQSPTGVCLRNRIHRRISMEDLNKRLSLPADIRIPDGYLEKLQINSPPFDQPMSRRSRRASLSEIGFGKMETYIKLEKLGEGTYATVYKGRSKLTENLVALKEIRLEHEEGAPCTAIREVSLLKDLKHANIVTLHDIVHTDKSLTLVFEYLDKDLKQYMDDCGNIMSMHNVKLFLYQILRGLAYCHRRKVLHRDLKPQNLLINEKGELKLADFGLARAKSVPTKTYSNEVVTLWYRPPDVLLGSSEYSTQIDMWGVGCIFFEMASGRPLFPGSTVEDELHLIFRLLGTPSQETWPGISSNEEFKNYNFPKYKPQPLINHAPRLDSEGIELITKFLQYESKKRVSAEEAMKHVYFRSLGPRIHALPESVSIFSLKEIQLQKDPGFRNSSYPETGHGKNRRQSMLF

[7] = molecular target: T2, Mitogen-activated protein kinase 15 (Homo sapiens) (UniProt Q8TD08); assay: Inhibition of ERK7 (unknown origin) at 1 uM by discoverX kinomescan assay
T2 sequence (whole entry): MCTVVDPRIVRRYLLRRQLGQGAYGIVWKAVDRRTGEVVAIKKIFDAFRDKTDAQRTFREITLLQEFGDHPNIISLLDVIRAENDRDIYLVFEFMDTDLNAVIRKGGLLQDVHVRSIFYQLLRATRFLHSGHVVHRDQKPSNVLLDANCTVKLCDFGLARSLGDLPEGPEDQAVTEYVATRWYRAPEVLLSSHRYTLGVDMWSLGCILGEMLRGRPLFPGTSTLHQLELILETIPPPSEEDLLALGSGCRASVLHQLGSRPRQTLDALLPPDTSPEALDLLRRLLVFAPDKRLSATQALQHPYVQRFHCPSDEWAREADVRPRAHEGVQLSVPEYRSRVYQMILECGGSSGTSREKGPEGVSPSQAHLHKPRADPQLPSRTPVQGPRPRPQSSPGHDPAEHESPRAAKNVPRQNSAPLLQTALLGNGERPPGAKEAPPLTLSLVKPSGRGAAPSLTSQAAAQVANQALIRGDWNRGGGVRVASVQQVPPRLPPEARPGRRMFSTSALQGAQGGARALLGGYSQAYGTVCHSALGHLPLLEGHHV

[8] = molecular target: Cyclin-dependent kinase 7 (Homo sapiens) (UniProt P50613); assay: Inhibition of CDK7 in human MDA-MB-453 cells assessed as decrease in Thr160 phosphorylation of CDK2 at 37 to 333 nM incubated for 24 hrs by Western blot substrate; type: cell-based; settings: dose 37-333 nM
Cyclin-dependent kinase 7 (Homo sapiens), sequence (P50613 whole entry): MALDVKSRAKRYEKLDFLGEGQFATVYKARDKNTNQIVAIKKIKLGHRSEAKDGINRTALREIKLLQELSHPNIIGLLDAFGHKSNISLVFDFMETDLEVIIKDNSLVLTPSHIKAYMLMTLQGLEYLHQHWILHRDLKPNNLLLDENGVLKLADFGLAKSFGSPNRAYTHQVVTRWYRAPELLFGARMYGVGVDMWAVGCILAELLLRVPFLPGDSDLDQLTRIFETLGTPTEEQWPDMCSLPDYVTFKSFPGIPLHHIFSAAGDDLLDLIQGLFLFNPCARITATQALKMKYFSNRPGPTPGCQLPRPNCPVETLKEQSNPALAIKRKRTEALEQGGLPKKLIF

MDA-MB-453 [9] = assay: Downregulation of Rb protein phosphorylation at Ser795 in human MDA-MB-453 cells incubated for 24 hrs by Western blot analysis; type: functional, cell-based; settings: dose 37-333 nM
MDA-MB-453 [10] = assay: Downregulation of Rb protein phosphorylation at Ser807 in human MDA-MB-453 cells incubated for 24 hrs by Western blot analysis; type: functional, cell-based; settings: dose 37-333 nM
MDA-MB-453 [11] = assay: Downregulation of Rb protein phosphorylation at Ser811 in human MDA-MB-453 cells incubated for 24 hrs by Western blot analysis; type: functional, cell-based; settings: dose 37-333 nM
MDA-MB-453 [12] = assay: Downregulation of Rb protein phosphorylation at Thr821 in human MDA-MB-453 cells incubated for 24 hrs by Western blot analysis; type: functional, cell-based; settings: dose 37-333 nM
MDA-MB-231 [13] = assay: Downregulation of Rb protein phosphorylation at Ser608 in human MDA-MB-231 cells incubated for 24 hrs by Western blot analysis; type: functional, cell-based; settings: dose 37-333 nM
MDA-MB-231 [14] = assay: Downregulation of Rb protein phosphorylation at Ser780 in human MDA-MB-231 cells incubated for 24 hrs by Western blot analysis; type: functional, cell-based; settings: dose 37-333 nM
MDA-MB-231 [15] = assay: Downregulation of Rb protein phosphorylation at Ser811 in human MDA-MB-231 cells incubated for 24 hrs by Western blot analysis; type: functional, cell-based; settings: dose 37-333 nM
MDA-MB-231 [16] = assay: Inhibition of RNA polymerase 2 C-terminal domain phosphorylation at Ser5 in heptad repeat in human MDA-MB-231 cells at 37 to 333 nM incubated for 24 hrs by Western blotting analysis; type: cell-based; settings: dose 37-333 nM
MDA-MB-231 [17] = assay: Inhibition of RNA polymerase 2 C-terminal domain phosphorylation at Ser7 in heptad repeat in human MDA-MB-231 cells at 37 to 333 nM incubated for 24 hrs by Western blotting analysis; type: cell-based; settings: dose 37-333 nM
MDA-MB-231 [18] = assay: Induction of cell cycle arrest in human MDA-MB-231 cells assessed as G0/G1 phase arrest at 12.3 to 1000 nM incubated for 24 hrs by PI staining based flow cytometry analysis; type: functional; settings: dose 12.3-1000 nM
[19] = Half life in CD1 mouse at 1 mg/kg, iv measured upto 24 hrs by LC-MS/MS analysis; type: ADME, organism-based; settings: in vivo
[20] = Clearance in CD1 mouse at 1 mg/kg, iv measured upto 24 hrs by LC-MS/MS analysis; type: ADME, organism-based; settings: in vivo
[21] = AUC(0 to t) in CD1 mouse at 1 mg/kg, iv measured upto 24 hrs by LC-MS/MS analysis; type: ADME, organism-based; settings: in vivo
[22] = Volume of distribution at steady state in CD1 mouse at 1 mg/kg, iv measured upto 24 hrs by LC-MS/MS analysis; type: ADME, organism-based; settings: in vivo, read-out: Vdss
[23] = Half life in CD1 mouse at 10 mg/kg, po measured upto 24 hrs by LC-MS/MS analysis; type: ADME, organism-based; settings: in vivo
[24] = Oral bioavailability in CD1 mouse at 10 mg/kg measured upto 24 hrs by LC-MS/MS analysis; type: ADME, organism-based; settings: in vivo
MDA-MB-231 [25] = assay: Antitumor activity against human MDA-MB-231 cells xenografted in Balb/c mouse assessed as tumor regression at 5 to 10 mg/kg, po administered once daily and measured at day 15; type: functional, organism-based; settings: dose 5-10 mg/kg
[26] = Toxicity in Balb/c mouse xenografted with human MDA-MB-231 cells assessed as change in body weight at 5 to 10 mg/kg po administered once daily for 21 days and measured every three days; type: organism-based; settings: in vivo, 504 h, dose 5-10 mg/kg, time 21 day

CDK7/Cyclin H/MNAT1, sequence (P51946 whole entry): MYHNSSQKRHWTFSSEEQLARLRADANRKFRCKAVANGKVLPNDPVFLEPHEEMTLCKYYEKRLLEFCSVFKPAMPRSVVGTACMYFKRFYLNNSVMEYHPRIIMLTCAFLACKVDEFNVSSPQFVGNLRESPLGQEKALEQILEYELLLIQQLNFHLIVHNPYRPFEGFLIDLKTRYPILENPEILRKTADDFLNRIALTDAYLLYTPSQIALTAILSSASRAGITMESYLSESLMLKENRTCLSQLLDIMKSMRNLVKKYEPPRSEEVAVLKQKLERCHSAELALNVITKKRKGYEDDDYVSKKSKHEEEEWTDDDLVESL
CDK7/Cyclin H/MNAT1, sequence (P50613 whole entry): as the sequence (P50613 whole entry) above
CDK7/Cyclin H/MNAT1, sequence (P51948 whole entry, further chain): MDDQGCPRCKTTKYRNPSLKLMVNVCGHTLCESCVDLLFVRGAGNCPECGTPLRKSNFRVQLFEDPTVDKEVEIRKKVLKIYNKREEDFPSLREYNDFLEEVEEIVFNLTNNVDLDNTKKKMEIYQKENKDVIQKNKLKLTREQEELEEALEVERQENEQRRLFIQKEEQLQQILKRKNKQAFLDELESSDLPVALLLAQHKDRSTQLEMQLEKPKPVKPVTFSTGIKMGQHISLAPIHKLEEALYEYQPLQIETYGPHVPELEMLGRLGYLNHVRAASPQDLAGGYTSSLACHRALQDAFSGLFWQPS

SMILES: CP(C)(=O)c1c(C#N)ccc2c(-c3nc(N[C@@H]4CNC[C@@H](F)C4)nc4ccsc34)c[nH]c12
- IC50 (CDK7/Cyclin H/MNAT1): 0.0065 µM
- half-life [1]: 1.2 h
- half-life [2]: 0.85 h
- IC50 [3]: 0.17 µM
- inhibition [4]: inactive
- inhibition [5]: inactive
- inhibition [6]: inactive
- inhibition [7]: inactive
- inhibition [8]: Active
- Activity (MDA-MB-453 [9]): Dose-Dependent Effect
- Activity (MDA-MB-453 [10]): Dose-Dependent Effect
- Activity (MDA-MB-453 [11]): Dose-Dependent Effect
- Activity (MDA-MB-453 [12]): Dose-Dependent Effect
- Activity (MDA-MB-231 [13]): Dose-Dependent Effect
- Activity (MDA-MB-231 [14]): Dose-Dependent Effect
- Activity (MDA-MB-231 [15]): Dose-Dependent Effect
- inhibition (MDA-MB-231 [16]): Active
- inhibition (MDA-MB-231 [17]): Active
- Activity (MDA-MB-231 [18]): Active
- half-life [19]: 1.9 h
- clearance [20]: 68.3 mL/min/kg
- AUC(0-t) at 24 h [21]: 230 ng·h/mL
- Vd [22]: 4.6 L/kg
- half-life [23]: 2.11 h
- bioavailability [24]: 22.3%
- Activity (MDA-MB-231 [25]): Active
- Activity [26]: Non-Toxic

Source: ChEMBL document CHEMBL5532658 (Eur J Med Chem, 2024)
